Measured values as given in ChEMBL document CHEMBL1201862, “PubChem BioAssay data set” (2004).
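Exposure lasted 48 hours, with cells grown in 96-well plates and compounds tested at five concentrations. At the GI50, growth is halved.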 Calls of active or inactive are those of the source. No stated cut-off is given here; in the data, active = GI50 up to about 1.1 µM and inactive = higher.

How the values were obtained:
Assay in all cases: DTP human tumour cell line panel, 48 h
DLD-1 = system: DLD-1
DMS-273 = system: DMS-273
HCC 2998 = system: HCC 2998
KM-20L2 = system: KM-20L2
M19-MEL = system: M19-MEL
OVCAR-3 = system: OVCAR-3
OVCAR-4 = system: OVCAR-4
OVCAR-8 = system: OVCAR-8
SF-295 = system: SF-295
SK-MEL-28 = system: SK-MEL-28
SNB-78 = system: SNB-78
UACC-62 = system: UACC-62
XF498 = system: XF498

Measured: GI50

O=C1OC2CC=CC1C2 (stereo unspecified)
inactive: DLD-1 > 100 µM | DMS-273 > 100 µM | HCC 2998 > 100 µM | KM-20L2 > 100 µM | M19-MEL > 100 µM | OVCAR-3 > 100 µM | OVCAR-4 > 100 µM | OVCAR-8 > 100 µM | SF-295 > 100 µM | SK-MEL-28 > 100 µM | SNB-78 > 100 µM | UACC-62 > 100 µM | XF498 > 100 µM

CC1=CC(O)C(O)C2(C)C1CC1OC(=O)C(O)C3C(C)C(O)C4(O)OCC13C42 (stereo unspecified)
inactive: DLD-1 135 µM | DMS-273 153 µM | HCC 2998 16.8 µM | KM-20L2 22.4 µM | M19-MEL 56 µM | OVCAR-3 10.2 µM | OVCAR-4 40.9 µM | OVCAR-8 32.1 µM | SF-295 28.8 µM | SK-MEL-28 118 µM | SNB-78 39.4 µM | UACC-62 84.3 µM | XF498 53.1 µM
